Test results: publication PMC5903252 (British Journal of Clinical Pharmacology, 2018)
“Also recorded” adds a separate entry of the source.

Legend:
aPTT = test: Activated partial thromboplastin time; format: in vivo, human; conditions: for Mean aPTT (± SEM) / aPTT % Change from baseline: immediately prior to the end of infusion
PT/INR = test: Prothrombin time/international normalized ratio; format: in vivo, human; conditions: part A and part B
[1] = Safety and tolerability, adverse events in healthy subjects; format: in vivo, human
Renal safety assessment = format: in vivo, human
rabbit models = conditions: preclinical; cited from earlier work
[2] = Plasma pharmacokinetics of BMS-962212 after IV infusion; conditions: human, in vivo
[3] = part A 2-h IV infusion 1.5 mg h^−1
[4] = part A 2-h IV infusion 4 mg h^−1
[5] = part A 2-h IV infusion 10 mg h^−1
[6] = part A 2-h IV infusion 25 mg h^−1
[7] = part B 5-day IV infusion 1 mg h^−1, Japanese subjects
[8] = part B 5-day IV infusion 1 mg h^−1, non-Japanese subjects
[9] = part B 5-day IV infusion 3 mg h^−1, Japanese subjects
[10] = part B 5-day IV infusion 3 mg h^−1, non-Japanese subjects
[11] = part B 5-day IV infusion 9 mg h^−1, Japanese subjects
[12] = part B 5-day IV infusion 9 mg h^−1, non-Japanese subjects
[13] = part B 5-day IV infusion 20 mg h^−1, Japanese subjects
[14] = part B 5-day IV infusion 20 mg h^−1, non-Japanese subjects
[15] = part A panel 1, 1.5 mg h^−1 2-h IV infusion, peak at 12 h after initiation

CN1CCN(c2cccc3c2CCN(C(=O)/C=C/c2c(-n4cnnn4)ccc(Cl)c2F)[C@@H]3C(=O)Nc2ccc(C(=O)O)cc2)C(=O)C1 [BMS‐962212]
Mean aPTT (± SEM) (aPTT; [3]): 45.8 ± 2.5 s
aPTT % Change from baseline (aPTT; [3]): 35%
Mean aPTT (± SEM) (aPTT; [4]): 49.2 ± 2.6 s
aPTT % Change from baseline (aPTT; [4]): 51%
Mean aPTT (± SEM) (aPTT; [5]): 53.0 ± 4.2 s
aPTT % Change from baseline (aPTT; [5]): 81%
Mean aPTT (± SEM) (aPTT; [6]): 61.3 ± 3.8 s
aPTT % Change from baseline (aPTT; [6]): 94%
maximum mean aPTT change from baseline (aPTT; part B 20 mg h^−1): 92%
Mean aPTT (± SEM) (aPTT; [7]): 37.7 ± 2.0 s
aPTT % Change from baseline (aPTT; [7]): 31%
Mean aPTT (± SEM) (aPTT; [8]): 42.4 ± 1.8 s
aPTT % Change from baseline (aPTT; [8]): 31%
Mean aPTT (± SEM) (aPTT; [9]): 46.1 ± 1.2 s
aPTT % Change from baseline (aPTT; [9]): 47%
Mean aPTT (± SEM) (aPTT; [10]): 44.0 ± 1.9 s
aPTT % Change from baseline (aPTT; [10]): 49%
Mean aPTT (± SEM) (aPTT; [11]): 52.0 ± 1.3 s
aPTT % Change from baseline (aPTT; [11]): 63%
Mean aPTT (± SEM) (aPTT; [12]): 52.6 ± 6.8 s
aPTT % Change from baseline (aPTT; [12]): 76%
Mean aPTT (± SEM) (aPTT; [13]): 63.0 ± 4.9 s
aPTT % Change from baseline (aPTT; [13]): 92%
Mean aPTT (± SEM) (aPTT; [14]): 57.2 ± 4.0 s
aPTT % Change from baseline (aPTT; [14]): 83%
time to maximal effect on aPTT after initiation of the IV infusion (aPTT; part B, day 1): approximately 2 h
PT/INR change (PT/INR): did not change; also recorded: no effect on PT/INR
tolerability ([1]; 2-h and 5-day IV infusions, healthy subjects): well tolerated
AE frequency: ecchymosis ([1]; BMS-962212 groups): 1.4%
AE frequency: flatulence ([1]; BMS-962212 groups): 1.4%
AE frequency: headache ([1]; BMS-962212 groups): 2.9%
AE frequency: infusion site pain or irritation ([1]; BMS-962212 groups): 5.9%
AE frequency: nausea ([1]; BMS-962212 groups): 2.9%
AE frequency: upper respiratory tract infection ([1]; BMS-962212 groups): 2.9%
frequency of AEs ([1]; Japanese subjects): 17.6%
subjects reporting AEs ([1]; all subjects assigned to BMS-962212 (12 of 68)): 17.6%
maximum tolerated dose ([1]; no dose-limiting AEs observed): not established
frequency of AEs ([1]; non-Japanese subjects): 29.4%
subjects reporting AEs ([1]; part A, subjects assigned to BMS-962212 (four of 34)): 11.7%
subjects reporting AEs ([1]; part B, subjects assigned to BMS-962212 (eight of 34)): 23.5%
bleeding ([1]; parts A and B): no signs of bleeding
deaths or serious AEs ([1]; parts A and B): No deaths or serious AEs were reported
iohexol plasma clearance (GFR) (Renal safety assessment; panel 1A, 1.5 mg h^−1 2-h IV infusion, day −2 vs day 1, and vs placebo): No clinically relevant differences
serum creatinine mean increase (Renal safety assessment; [15]): 0.28 mg/dL
serum creatinine median increase (Renal safety assessment; [15]): 0.35 mg/dL
mean percentage decrease in eGFR (based on serum creatinine) (Renal safety assessment; part A panel 1, 1.5 mg h^−1, 12 h postdose): −22.58%
antithrombotic efficacy and haemostasis (rabbit models): shows antithrombotic efficacy at doses which preserve haemostasis
Tmax [2]: 1 to 2 h
half-life ([2]; 1 mg, t 1/2, part B 1 mg h^−1, Japanese ethnicity (n = 4), mean (CV%)): 7.32 h
half-life ([2]; 1 mg, t 1/2, part B 1 mg h^−1, Non-Japanese ethnicity (n = 4), mean (CV%)): 5.3 h
half-life ([2]; 3 mg, t 1/2, part B 3 mg h^−1, Japanese ethnicity (n = 4), mean (CV%)): 6.42 h
half-life ([2]; 3 mg, t 1/2, part B 3 mg h^−1, Non-Japanese ethnicity (n = 4), mean (CV%)): 6.05 h
half-life ([2]; 9 mg, t 1/2, part B 9 mg h^−1, Japanese ethnicity (n = 4), mean (CV%)): 8.28 h
half-life ([2]; 9 mg, t 1/2, part B 9 mg h^−1, Non-Japanese ethnicity (n = 4), mean (CV%)): 8.32 h
half-life ([2]; 20 mg, t 1/2, part B 20 mg h^−1, Japanese ethnicity (n = 4), mean (CV%)): 8.28 h
half-life ([2]; 20 mg, t 1/2, part B 20 mg h^−1, Non-Japanese ethnicity (n = 4), mean (CV%)): 7.23 h
AUC(0-inf) ([2]; iv, 1 mg h^−1): 6.38 µg·h/mL
AUC(0-t) ([2]; iv, 1 mg h^−1): 6.3 µg·h/mL
Cmax ([2]; iv, 1 mg h^−1): 0.0583 µg/mL
Tmax ([2]; iv, 1 mg h^−1): 24 h
clearance ([2]; iv, 1 mg h^−1, CL, part B 5-day IV infusion 1 mg h^−1, geometric mean (CV%)): 314 mL/min
Vd ([2]; iv, 1 mg h^−1, Vz, part B 5-day IV infusion 1 mg h^−1, geometric mean (CV%)): 188 L
half-life ([2]; iv, 1 mg h^−1, t1/2, part B 5-day IV infusion 1 mg h^−1, geometric mean (CV%)): 6.25 h
AUC(0-inf) ([2]; iv, 1.5 mg h^−1): 0.18 µg·h/mL
AUC(0-t) ([2]; iv, 1.5 mg h^−1): 0.122 µg·h/mL
Cmax ([2]; iv, 1.5 mg h^−1): 0.0819 µg/mL
Tmax ([2]; iv, 1.5 mg h^−1): 1.5 h
